Active and inactive are the calls of the source. Square brackets hold non-standard residues; d marks the D form. Peptide text beside a SMILES is read from it. * marks the point of attachment. ξ: configuration not given here. Cbz = O=C(OCc1ccccc1)*; OBn = c1ccc(CO*)cc1; ξP = O=C(O)C1CCCN1
Experiments:
[1] = biological target: T1, Zinc finger protein mex-5 (Caenorhabditis elegans, UniProt Q9XUB2); assay: MEX-5/TCR-2 RNA interaction inhibitors, dose response, biochemical, C. elegans, fluorescence polarization (AID 1960)
T1 sequence (Q9XUB2 whole entry): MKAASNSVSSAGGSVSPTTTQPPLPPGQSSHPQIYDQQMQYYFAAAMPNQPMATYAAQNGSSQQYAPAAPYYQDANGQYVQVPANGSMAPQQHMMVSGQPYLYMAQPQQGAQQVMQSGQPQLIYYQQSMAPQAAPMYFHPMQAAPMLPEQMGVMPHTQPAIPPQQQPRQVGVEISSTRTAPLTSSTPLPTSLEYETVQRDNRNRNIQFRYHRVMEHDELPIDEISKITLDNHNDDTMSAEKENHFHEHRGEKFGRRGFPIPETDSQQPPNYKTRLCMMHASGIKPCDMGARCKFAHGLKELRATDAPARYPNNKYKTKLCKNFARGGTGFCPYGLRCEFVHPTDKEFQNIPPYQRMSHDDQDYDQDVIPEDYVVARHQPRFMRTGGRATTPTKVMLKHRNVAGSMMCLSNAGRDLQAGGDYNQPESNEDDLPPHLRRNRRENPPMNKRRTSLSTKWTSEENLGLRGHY

[2] = biological target: T2, RNA-binding protein pos-1 (Caenorhabditis elegans, UniProt G5EF15); assay: inhibitors of POS-1/mex-3 RNA binding, dose response, biochemical, fluorescence polarization (AID 1964);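 note: purified POS-1 fused to maltose binding protein made in E. coli; potency of compounds blocking POS-1 binding to fluorescent RNA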
T2 sequence (G5EF15 whole entry): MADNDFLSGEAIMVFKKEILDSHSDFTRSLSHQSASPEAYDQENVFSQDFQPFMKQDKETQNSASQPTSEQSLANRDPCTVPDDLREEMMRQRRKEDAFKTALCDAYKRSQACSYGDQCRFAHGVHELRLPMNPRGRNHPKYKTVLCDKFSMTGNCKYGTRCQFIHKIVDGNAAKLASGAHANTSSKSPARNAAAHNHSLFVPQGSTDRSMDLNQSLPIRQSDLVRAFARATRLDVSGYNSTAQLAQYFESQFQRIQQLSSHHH

Cytochrome P450 2C19 = Cytochrome P450 2C19 (Homo sapiens, UniProt P33261); assay: Cytochrome panel assay with activity outcomes. Panel member name: p450-cyp2c19 Compounds with AC50 equal or less than 10 uM are considered active; assay type: functional
[3] = biological target: T3, Replicative DNA helicase DnaB (Mycobacterium tuberculosis, UniProt P9WMR3); assay: DnaB intein splicing inhibitors, dose response, biochemical, cell-free fluorescence (AID 449749); assay type: functional
T3 sequence (P9WMR3 whole entry): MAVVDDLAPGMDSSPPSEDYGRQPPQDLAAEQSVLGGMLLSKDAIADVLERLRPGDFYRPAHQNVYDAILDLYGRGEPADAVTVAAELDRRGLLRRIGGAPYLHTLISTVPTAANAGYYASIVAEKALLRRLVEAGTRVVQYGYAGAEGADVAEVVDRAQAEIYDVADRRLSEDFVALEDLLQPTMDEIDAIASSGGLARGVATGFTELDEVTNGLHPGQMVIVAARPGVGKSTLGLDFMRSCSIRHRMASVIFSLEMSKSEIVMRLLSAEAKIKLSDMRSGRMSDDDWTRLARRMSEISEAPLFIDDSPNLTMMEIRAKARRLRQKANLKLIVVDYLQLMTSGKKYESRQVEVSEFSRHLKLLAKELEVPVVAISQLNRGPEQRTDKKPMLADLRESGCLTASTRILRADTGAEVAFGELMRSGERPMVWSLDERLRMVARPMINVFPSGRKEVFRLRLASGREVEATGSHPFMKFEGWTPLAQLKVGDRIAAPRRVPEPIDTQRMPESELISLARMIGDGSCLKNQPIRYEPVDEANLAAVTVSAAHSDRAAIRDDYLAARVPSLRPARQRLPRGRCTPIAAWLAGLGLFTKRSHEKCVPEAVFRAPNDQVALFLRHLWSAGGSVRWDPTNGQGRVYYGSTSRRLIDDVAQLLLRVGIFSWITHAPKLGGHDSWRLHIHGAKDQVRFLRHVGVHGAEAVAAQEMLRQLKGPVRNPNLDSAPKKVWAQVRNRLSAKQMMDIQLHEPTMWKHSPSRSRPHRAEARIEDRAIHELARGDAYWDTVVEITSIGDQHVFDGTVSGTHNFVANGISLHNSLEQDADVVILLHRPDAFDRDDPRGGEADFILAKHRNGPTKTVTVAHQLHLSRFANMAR

Protein RecA = biological target: T4, Protein RecA (Mycobacterium tuberculosis, UniProt P9WHJ3); assay: Fluorescence Cell-Free Homogeneous Dose Retest to Identify Inhibitors of RecA-Intein Splicing Activity. [Related pubchem assays (depositor defined):AID2097, AID2223, AID489010, AID492950]; assay type: functional
T4 sequence (P9WHJ3 whole entry): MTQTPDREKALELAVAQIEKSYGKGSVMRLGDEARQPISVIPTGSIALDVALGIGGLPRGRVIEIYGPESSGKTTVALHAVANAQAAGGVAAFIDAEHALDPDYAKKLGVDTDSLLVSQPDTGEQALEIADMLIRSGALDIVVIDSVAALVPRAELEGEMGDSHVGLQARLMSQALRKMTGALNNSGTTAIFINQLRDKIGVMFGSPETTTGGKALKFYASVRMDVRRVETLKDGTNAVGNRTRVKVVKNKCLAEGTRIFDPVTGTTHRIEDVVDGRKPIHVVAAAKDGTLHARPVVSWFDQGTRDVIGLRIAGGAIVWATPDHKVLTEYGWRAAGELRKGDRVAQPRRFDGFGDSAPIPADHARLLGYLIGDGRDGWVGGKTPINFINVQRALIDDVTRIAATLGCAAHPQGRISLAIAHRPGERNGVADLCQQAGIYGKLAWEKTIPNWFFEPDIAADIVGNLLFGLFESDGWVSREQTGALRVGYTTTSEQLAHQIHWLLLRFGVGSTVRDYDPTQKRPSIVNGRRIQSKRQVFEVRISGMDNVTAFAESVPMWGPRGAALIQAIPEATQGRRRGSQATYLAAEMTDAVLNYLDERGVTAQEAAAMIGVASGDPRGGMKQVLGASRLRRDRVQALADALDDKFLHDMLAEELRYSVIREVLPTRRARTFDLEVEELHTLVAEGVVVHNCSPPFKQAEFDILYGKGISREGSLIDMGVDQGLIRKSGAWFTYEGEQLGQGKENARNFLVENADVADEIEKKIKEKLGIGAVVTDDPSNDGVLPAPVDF

Cytochrome P450 2D6 = Cytochrome P450 2D6 (Homo sapiens, UniProt P10635);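 note: CYP2D6 member of a cytochrome P450 panel assay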
Cytochrome P450 1A2 = biological target: T5, Cytochrome P450 1A2 (Homo sapiens, UniProt P05177);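 note: PubChem cytochrome P450 panel assay, CYP1A2 panel member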
T5 sequence (P05177 whole entry): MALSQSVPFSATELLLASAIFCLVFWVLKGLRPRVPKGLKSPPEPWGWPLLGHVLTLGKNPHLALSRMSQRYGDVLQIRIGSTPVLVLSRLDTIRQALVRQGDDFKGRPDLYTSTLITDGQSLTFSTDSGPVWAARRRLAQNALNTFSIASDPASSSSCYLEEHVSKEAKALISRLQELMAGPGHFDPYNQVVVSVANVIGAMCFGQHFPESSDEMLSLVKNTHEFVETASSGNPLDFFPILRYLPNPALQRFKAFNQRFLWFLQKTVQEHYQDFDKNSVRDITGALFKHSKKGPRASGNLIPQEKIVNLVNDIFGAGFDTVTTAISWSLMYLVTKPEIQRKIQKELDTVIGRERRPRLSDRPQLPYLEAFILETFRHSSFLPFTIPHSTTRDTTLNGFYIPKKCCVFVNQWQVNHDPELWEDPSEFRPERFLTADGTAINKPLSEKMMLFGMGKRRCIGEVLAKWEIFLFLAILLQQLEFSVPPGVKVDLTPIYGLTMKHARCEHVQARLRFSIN

Cytochrome P450 2C9 = Cytochrome P450 2C9 (Homo sapiens, UniProt P11712)
[4] = system: Streptococcus sp. 'group A'; assay: growth inhibition of control SK(-) GAS strain, dose response, counter-screen for streptokinase expression inhibitor project, luminescence, kanamycin, BacTiterGlo, confirmation (AID 1900); assay type: functional, organism-based
Streptococcus = assay: Group A Streptococcus viability loss, dose response, counter-screen for streptokinase expression inhibitor project, luminescence, BacTiterGlo (AID 1915); assay type: functional, organism-based;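 note: potency for reduction of bacterial viability or growth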
Cytochrome P450 3A4 = Cytochrome P450 3A4 (Homo sapiens, UniProt P08684);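 note: CYP3A4 tested as one member of a cytochrome P450 panel screen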
Chain of Cytochrome P450 3A4 (P08684 whole entry): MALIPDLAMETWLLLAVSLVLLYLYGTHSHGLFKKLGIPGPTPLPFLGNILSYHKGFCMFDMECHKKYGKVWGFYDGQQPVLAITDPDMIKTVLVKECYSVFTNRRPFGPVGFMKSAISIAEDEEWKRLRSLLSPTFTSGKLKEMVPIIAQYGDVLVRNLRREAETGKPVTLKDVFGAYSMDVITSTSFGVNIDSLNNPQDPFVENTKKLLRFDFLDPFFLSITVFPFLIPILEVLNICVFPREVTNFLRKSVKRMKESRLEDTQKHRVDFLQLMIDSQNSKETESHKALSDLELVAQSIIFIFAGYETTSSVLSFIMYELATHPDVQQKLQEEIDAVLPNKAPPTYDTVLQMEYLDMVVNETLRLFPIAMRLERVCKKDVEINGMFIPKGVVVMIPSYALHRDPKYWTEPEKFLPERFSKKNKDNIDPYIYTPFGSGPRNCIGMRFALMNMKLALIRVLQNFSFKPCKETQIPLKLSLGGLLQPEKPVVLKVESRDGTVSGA

Chain of Cytochrome P450 2D6 (P10635 whole entry): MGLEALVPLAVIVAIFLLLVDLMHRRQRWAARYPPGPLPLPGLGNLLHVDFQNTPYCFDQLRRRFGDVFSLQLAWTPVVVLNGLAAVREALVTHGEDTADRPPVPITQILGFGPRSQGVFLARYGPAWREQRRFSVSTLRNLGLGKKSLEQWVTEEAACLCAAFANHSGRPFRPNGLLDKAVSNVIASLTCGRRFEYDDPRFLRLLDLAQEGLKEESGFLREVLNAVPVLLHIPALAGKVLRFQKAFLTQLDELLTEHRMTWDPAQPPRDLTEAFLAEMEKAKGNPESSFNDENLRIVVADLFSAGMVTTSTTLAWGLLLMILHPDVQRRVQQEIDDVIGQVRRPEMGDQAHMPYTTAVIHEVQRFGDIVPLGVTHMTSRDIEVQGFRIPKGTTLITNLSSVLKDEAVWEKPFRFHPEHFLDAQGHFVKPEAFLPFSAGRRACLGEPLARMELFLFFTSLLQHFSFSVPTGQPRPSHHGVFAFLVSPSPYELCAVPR
Chain of Cytochrome P450 2C19 (P33261 whole entry): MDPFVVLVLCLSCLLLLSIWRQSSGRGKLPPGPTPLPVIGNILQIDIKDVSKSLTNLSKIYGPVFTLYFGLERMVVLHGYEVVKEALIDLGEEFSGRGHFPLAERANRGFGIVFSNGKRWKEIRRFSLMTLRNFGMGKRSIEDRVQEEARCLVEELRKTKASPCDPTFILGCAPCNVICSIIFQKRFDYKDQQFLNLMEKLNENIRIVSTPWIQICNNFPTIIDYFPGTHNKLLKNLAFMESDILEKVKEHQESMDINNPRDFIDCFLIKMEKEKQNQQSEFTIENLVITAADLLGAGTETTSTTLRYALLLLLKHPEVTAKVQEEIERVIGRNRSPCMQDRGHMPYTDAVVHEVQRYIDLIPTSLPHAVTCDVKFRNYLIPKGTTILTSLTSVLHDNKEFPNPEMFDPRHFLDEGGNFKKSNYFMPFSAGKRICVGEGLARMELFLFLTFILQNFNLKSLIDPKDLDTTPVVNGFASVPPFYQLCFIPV
Chain of Cytochrome P450 2C9 (P11712 whole entry): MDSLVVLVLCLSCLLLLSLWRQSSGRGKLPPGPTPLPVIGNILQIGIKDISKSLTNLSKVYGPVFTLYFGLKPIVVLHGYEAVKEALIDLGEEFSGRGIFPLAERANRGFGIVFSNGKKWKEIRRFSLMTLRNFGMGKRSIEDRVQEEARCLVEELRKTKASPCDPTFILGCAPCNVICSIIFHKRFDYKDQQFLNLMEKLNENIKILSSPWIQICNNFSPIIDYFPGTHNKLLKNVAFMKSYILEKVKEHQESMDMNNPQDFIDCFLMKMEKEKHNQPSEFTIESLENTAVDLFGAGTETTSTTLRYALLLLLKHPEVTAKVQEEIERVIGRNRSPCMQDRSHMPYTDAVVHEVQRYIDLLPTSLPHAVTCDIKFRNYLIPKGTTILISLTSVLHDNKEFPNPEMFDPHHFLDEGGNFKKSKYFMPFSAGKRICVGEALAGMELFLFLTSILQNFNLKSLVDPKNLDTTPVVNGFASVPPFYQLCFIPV

Compound | EC50 [1] | EC50 [2] | AC50 (Cytochrome P450 2C19; read-out: AC50) | also measured
Cc1ccccc1N=Nc1c(O)n(C)c2ccccc12 | > 300 µM (not active) | > 300 µM (not active) |  | 
Oc1cccc(/C=N/N=C/c2cccc(O)c2O)c1O | 24.6 µM (active) | 42.9 µM (active) |  | 
O=C(NNC(=O)c1ccccc1[N+](=O)[O-])c1cnccn1 | 1.25 µM (active) | 76.5 µM (active) |  | 
O=C1[C@H]2[C@H]3[C@H](O)[C@H](O)C/C(=N/OCc4ccccc4)[C@@H]3CC[C@@H]2C(=O)N1Cc1ccc2c(c1)OCO2 |  |  | 3.98 µM (inconclusive) | 
O=C(O)c1cc(-n2cccc2)ccc1N1CCOCC1 | 74.3 µM (active) | > 300 µM (not active) |  | 
CC1=NNC(=O)C1Cc1c(Cl)cccc1Cl (stereo not given) |  |  |  | AC50 [3]: 1.39 µM (active); EC50 (Protein RecA): 0.642 µM (active)
CCN1CCN(c2nc3c(c(=O)[nH]c(=O)n3C)n2CCCSc2ncccn2)CC1 |  |  |  | AC50 (Cytochrome P450 2C19): inconclusive
Cc1cccc(N(C)S(=O)(=O)c2nnc(NC(=O)c3ccco3)s2)c1 | > 300 µM (not active) | > 300 µM (not active) |  | 
CC(C)CS(=O)(=O)C1=NN2C(=N)/C(=C\c3ccc(OC(=O)c4ccco4)cc3)C(=O)N=C2S1 |  |  |  | EC50 (Protein RecA): 14.4 µM (active)
C=CCSc1nnc2c(n1)OC(c1c(C)[nH]n(-c3ccccc3)c1=O)Nc1ccccc1-2 (stereo not given) |  |  | 8.91 µM (inconclusive) | AC50 (Cytochrome P450 2D6): 0.158 µM (inconclusive); AC50 (Cytochrome P450 1A2): 15.8 µM (inconclusive)
CCC(=O)N1CCn2c1nc1ccccc12 |  |  | 28.2 µM (inconclusive) | AC50 (Cytochrome P450 2C9): 1.41 µM (inconclusive)
COC(=O)c1ccc(-n2c(C)ccc2-c2ccccc2)cc1 | > 300 µM (not active) | > 300 µM (not active) |  | 
O=C(/C=C/c1c(Cl)cccc1Cl)N1CCOCC1 | > 300 µM (not active) | > 300 µM (not active) |  | 
CCOC(=O)N1CCN(C(=O)c2ccc3c(c2)NC(=O)/C(=C\c2ccc(OC)c(OC)c2)S3)CC1 | > 300 µM (inconclusive) | > 300 µM (not active) |  | EC50 [4]: 0.875 µM (active); EC50 (Streptococcus): 5.67 µM (active)
COc1ccc2[nH]c(SCC(=O)Nc3nonc3C)nc2c1 | 20.7 µM (inconclusive) | 18.4 µM (active) |  | 
c1ccc(N2CCCC3(CCNCC3)C2)cc1 |  |  | 15.8 µM (inconclusive) | AC50 (Cytochrome P450 3A4): 25.1 µM (inconclusive)
Clc1ccc2c(N[C@H]3CC[C@H](N4CCCCC4)CC3)ccnc2c1 |  |  |  | AC50 (Cytochrome P450 2C19): inconclusive; AC50 (Cytochrome P450 2D6): 3.98 µM (inconclusive)
O=C(CNC(=O)OCc1ccccc1)NCC(=O)N1CCCC1C(=O)OCc1ccccc1 (stereo not drawn) (Cbz-Gly-Gly-[ξP]-OBn) |  |  | 0.0355 µM (inconclusive) | AC50 (Cytochrome P450 3A4): 17.8 µM (inconclusive)
Cc1ccc2occ(/C=C/C(=O)O)c(=O)c2c1 |  |  | 28.2 µM (inconclusive) | AC50 (Cytochrome P450 2C9): 25.1 µM (inconclusive); AC50 (Cytochrome P450 2D6): 15.8 µM (inconclusive); AC50 (Cytochrome P450 3A4): 22.4 µM (inconclusive)
FC(F)(F)c1nc2ccccc2nc1N/N=C\c1ccccc1 |  |  | 39.8 µM (inconclusive) | AC50 (Cytochrome P450 2C9): 20 µM (inconclusive); AC50 (Cytochrome P450 2D6): 14.1 µM (inconclusive)
Cc1nc(-c2cccc(NC(=O)c3cc4cc(Br)ccc4oc3=O)c2)cs1 |  |  | 20 µM (inconclusive) | AC50 (Cytochrome P450 1A2): 8.91 µM (inconclusive); AC50 (Cytochrome P450 3A4): 10 µM (inconclusive)
O=C(NNS(=O)(=O)c1ccc(Cl)cc1)NC1CCCCC1 |  |  | 10 µM (inconclusive) | AC50 (Cytochrome P450 2C9): 17.8 µM (inconclusive)
COCCNC(=O)CCn1c(=O)oc2ccccc21 |  |  | 1.41 µM (inconclusive) | 
O=C(OCn1nnc2ccccc2c1=O)c1cccnc1 |  |  | 25.1 µM (inconclusive) | AC50 (Cytochrome P450 2C9): 25.1 µM (inconclusive); AC50 (Cytochrome P450 1A2): 17.8 µM (inconclusive)
O=C(O)CS(=O)(=O)C(c1ccccc1)c1ccccc1 |  |  |  | AC50 (Cytochrome P450 2C19): inconclusive
NC(=O)c1ccsc1N | 10.1 µM (inconclusive) | 10.9 µM (active) |  | 

From ChEMBL document CHEMBL1201862, “PubChem BioAssay data set” (2004)
